Experimental data: patent US10729668B2, “Ketobutyrate compounds and compositions for treating age-related symptoms and diseases” (The Regents of the University of California, priority 2014, dated 2020)

Key:
pyruvate dehydrogenase = biological target: T1, pyruvate dehydrogenase (Bos taurus, UniProt A7MB35+P11966); assay: Pyruvate Dehydrogenase (PDH) Enzyme Activity Microplate Assay; assay type: biochemical, bovine; details: vehicle mean as 100 percent
T1 construct: purchased Abcam ab110338 (lysate); ab109902 (assay kit); host or cells: bovine heart mitochondrial lysate
Experimental: To examine the effect of α-KB on pyruvate dehydrogenase, the Pyruvate Dehydrogenase (PDH) Enzyme Activity Microplate Assay Kit (Abcam, ab109902) was used. The assay was performed according to the protocol provided. Detergent was added to bovine heart mitochondrial lysate (Abcam, ab110338) and followed by an incubation at 4° C. for 20 minutes to release PDH. The sample was then centrifuged at 14,000×g for 10 minutes. Supernatant was diluted with the incubation buffer and added to a PDH antibody-coated 96-well plate. After 3 hours incubation followed by 2× wash with stabilizer buffer, the wells were added with 200 μL of reaction mix containing 10, 20, 50, 200, and 800 μM α-KB or vehicle control (distilled water). Each condition was performed in triplicates. Kinetic measurements of absorbance at 450 nm with 1 minute intervals were taken, and PDH activity was calculated from the slope of the absorbance to time. The readings were normalized to vehicle mean (as 100 percent).

[1] = test system: ETC Complex I diaphorase (NADH: acceptor oxidoreductase); assay: Complex I Enzyme Activity Microplate Assay (diaphorase); assay type: biochemical, bovine; details: 200 and 800 μM
Experimental: To assess if α-KB can affect the diaphorase (NADH: acceptor oxidoreductase) activity of Complex I, the Complex I Enzyme Activity Microplate Assay Kit (Abcam, ab109721) was used. The assay was performed according to the protocol provided. Bovine Heart Mitochondria lysate (Abcam, ab110338) was added with detergent, followed by incubation on ice for 30 minutes to release Complex I and then centrifuged at 12,000 g, 4° C. for 20 minutes. Supernatant was collected and diluted with the buffer provided and then added to a Complex I antibody-coated 96-well plate. After a 3 hour incubation followed by 2× wash with stabilizer buffer, the wells were added with 200 μL of reaction mix containing 50, 200, or 800 μM α-KB or vehicle control (distilled water). Each condition was performed in triplicates. Kinetic measurements of absorbance at 450 nm with 1 minute intervals were taken, and Complex I diaphorase activity was calculated from the slope of the absorbance to time. The readings were normalized to vehicle mean (as 100 percent).

C. elegans = assay: Lifespan of adult C. elegans on treatment plates; assay type: in vivo, Caenorhabditis elegans
Experimental: C. elegans were synchronized by performing either a timed egg lay or an egg preparation (mix <100 gravid worms in 70 μl M9 buffer, 25 μl bleach, and 5 μl 10 N NaOH). Once the worms reached adulthood, they were picked onto NGM treatment plates containing 1.5% dimethyl sulfoxide (DMSO; Sigma D8418), 49.5 μM 5-fluoro-2′-deoxyuridine (FUDR, Sigma F0503), 50 μg/ml ampicillin, and α-KB (Sigma K401). Plates containing α-KB were adjusted to pH 6.0 (i.e., the same pH as the control plates) by the addition of NaOH. Treatment plates were seeded with OP50 E. coli as the C. elegans food source. […] Worms were moved to new plates every 4 days. All lifespan experiments were conducted at 20° C.

ATP synthase = ATP synthase inhibition
[2] = test system: nuo-6(qm200), daf-2(e1370), eat-2(ad1116) mutant C. elegans strains; assay: Lifespan of long-lived mutant C. elegans strains; assay type: in vivo, Caenorhabditis elegans
Description: The nuo-6 gene encodes the C. elegans ortholog of the NDUFB4/B15 subunit of the mitochondrial electron transport chain complex I, also known as the NADH dehydrogenase complex.

HCV = assay: Renilla reporter HCV infection of Huh7.5 cells, luciferase activity; assay type: cell-based; details: 1 mM and 1 μM, 72 hours post treatment
Experimental: As subjects age, their susceptibility to infection increases. Therefore, to determine whether α-KB reduces ones susceptibility to age-related infection, Huh7.5 cells were infected with the Renilla reporter HCV for 5 hours and subsequently treated with 1 mM and 1 μM of α-KB. 72 hours post treatment, the cells were lysed and luciferase activity was measured. JG-98, which is a suppressor of viral assembly, was used as a positive control and water was used as a negative control. […] To ensure that the anti-viral activity of α-KB is not the result of cytotoxicity, Huh7.5 cells were treated with 1 mM, 100 μM, 10 μM, 1 μM, and 100 nM α-KB. MTT assays were performed every 24 hours up to 72 hours post treatment. Luteolin, an anti-cancer compound which is cytotoxic, was used as a positive control and water was used as a negative control.

[3] = test system: Aged mice (22-23 month old C57BL/6J); assay: Aged mice fed α-KB in drinking water for 7 months; assay type: in vivo
Experimental: Aged mice (22-23 month old C57BL/6J), including both males and females, were fed either water or α-KB (8 mM in drinking water or 90 mg/kg body weight) for 7 months. […] Mice were examined at least twice a week for signs of ill health, and severely sick or immobilized mice were subject to termination. The lifespan of α-KB treated male group was extended. All the males in untreated control group (5 of 5) died or were terminated due to severe illness before the completion of the 7 months test. Remarkably, most of the males in the α-KB treated group (4 of 5) lived healthily and were still in excellent health at the end of the 7 months study period.

male mice = assay: In vivo ischemia reperfusion injury, coronary artery occlusion; parameters: species or system mouse; details: 800 μM single bolus via tail vein at onset of reperfusion, 24 hours reperfusion, n=6
Experimental: The LAD is occluded in male mice for 30 minutes followed by a 24 hour reperfusion. At the onset of reperfusion one bolus of α-KB or PBS was applied via tail vein.
To examine the cardioprotective role of α-KB, an in vivo model of ischemia reperfusion injury was used. The left coronary artery was occluded for 30 minutes in male mice followed by 24 hours of reperfusion. One single bolus of PBS (vehicle control) or α-KB (800 μM) was applied through the tail vein at the onset of reperfusion (FIG. 9A).

T1 sequence (A7MB35 30-390): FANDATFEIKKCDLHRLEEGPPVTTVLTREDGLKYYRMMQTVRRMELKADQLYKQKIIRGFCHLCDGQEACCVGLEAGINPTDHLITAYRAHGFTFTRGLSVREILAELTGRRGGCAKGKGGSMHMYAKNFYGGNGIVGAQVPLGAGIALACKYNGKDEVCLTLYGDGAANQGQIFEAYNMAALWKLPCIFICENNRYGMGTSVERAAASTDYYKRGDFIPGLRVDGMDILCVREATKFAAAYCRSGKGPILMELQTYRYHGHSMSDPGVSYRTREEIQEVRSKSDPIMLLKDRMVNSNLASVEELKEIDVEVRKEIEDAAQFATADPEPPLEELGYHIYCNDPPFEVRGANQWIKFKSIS
T1 sequence (P11966 31-359): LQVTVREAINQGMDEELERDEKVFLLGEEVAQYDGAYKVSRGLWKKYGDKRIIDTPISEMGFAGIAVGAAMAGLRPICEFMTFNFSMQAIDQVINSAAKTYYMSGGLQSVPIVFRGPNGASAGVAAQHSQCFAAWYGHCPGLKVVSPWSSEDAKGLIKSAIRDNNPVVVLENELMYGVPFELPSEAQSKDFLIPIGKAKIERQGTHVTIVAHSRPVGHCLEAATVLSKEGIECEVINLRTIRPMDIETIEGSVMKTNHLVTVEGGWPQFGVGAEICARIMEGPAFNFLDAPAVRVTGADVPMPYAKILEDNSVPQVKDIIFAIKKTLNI
T1 sequence (P11180 87-647 partner): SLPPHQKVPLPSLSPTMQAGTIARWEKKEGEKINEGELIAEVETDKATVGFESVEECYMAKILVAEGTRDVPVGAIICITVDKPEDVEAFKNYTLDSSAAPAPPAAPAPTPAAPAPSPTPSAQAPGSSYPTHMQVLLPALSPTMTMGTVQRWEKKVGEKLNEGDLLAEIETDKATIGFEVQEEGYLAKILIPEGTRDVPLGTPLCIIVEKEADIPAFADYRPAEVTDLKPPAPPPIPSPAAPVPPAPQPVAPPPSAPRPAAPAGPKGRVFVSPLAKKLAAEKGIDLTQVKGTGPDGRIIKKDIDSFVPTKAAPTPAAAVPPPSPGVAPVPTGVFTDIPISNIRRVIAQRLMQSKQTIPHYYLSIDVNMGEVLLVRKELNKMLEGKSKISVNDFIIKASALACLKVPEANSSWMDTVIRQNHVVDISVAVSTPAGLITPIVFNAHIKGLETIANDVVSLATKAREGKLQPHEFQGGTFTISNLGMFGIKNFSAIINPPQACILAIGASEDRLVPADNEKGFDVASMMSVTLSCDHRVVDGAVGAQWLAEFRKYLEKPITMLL
T1 sequence (P22439 54-501 partner): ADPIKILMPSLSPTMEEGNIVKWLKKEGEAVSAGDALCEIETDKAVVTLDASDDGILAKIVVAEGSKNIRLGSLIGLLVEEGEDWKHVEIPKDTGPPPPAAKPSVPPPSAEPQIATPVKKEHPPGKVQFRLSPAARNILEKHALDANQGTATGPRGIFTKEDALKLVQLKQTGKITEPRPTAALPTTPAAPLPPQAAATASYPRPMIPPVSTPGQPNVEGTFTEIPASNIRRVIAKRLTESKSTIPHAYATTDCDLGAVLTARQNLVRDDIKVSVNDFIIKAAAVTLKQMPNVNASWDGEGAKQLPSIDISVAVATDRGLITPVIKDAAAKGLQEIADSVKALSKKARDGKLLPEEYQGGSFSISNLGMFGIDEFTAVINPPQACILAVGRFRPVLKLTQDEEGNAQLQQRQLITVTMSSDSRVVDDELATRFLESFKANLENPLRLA
T1 sequence (F1N206 36-509 partner): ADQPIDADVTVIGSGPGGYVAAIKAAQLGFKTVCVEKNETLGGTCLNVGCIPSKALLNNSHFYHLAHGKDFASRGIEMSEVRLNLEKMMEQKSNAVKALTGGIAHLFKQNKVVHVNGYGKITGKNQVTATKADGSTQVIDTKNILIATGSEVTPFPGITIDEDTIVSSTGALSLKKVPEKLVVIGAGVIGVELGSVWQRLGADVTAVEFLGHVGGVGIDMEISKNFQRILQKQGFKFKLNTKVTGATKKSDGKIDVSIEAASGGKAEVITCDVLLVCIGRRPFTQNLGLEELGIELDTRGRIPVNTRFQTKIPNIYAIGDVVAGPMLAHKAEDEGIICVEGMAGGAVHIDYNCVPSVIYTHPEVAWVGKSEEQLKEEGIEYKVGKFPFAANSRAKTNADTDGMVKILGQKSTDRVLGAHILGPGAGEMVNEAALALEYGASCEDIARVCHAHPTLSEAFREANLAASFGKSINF

CCC(=O)C(=O)O [α-KB, α-ketobutyrate]
normalized PDH activity (percentage) (pyruvate dehydrogenase; 200 μM): 68.0±11.8 percentage | normalized PDH activity (percentage) (pyruvate dehydrogenase; 800 μM): 41.6±7.89 percentage | Complex I diaphorase activity [1]: directly inhibits | lifespan as compared to untreated control subjects (C. elegans; adult C. elegans, 20° C.): extends the lifespan | potency relative to α-KG in treating, inhibiting, or reducing aging and age-related symptoms (C. elegans; in vivo): about 1 fold | inhibition of ATP synthase (ATP synthase): does not inhibit | lifespan of daf-2(e1370) strain ([2]; daf-2(e1370)): does extend the lifespan | lifespan of eat-2(ad1116) strain ([2]; eat-2(ad1116)): does extend the lifespan | lifespan of nuo-6(qm200) strain ([2]; nuo-6(qm200)): inability of α-KB to extend the lifespan | HCV infection (luciferase activity) (HCV): inhibits or reduces viral infection | adverse effects ([3]; 8 mM in drinking water or 90 mg/kg body weight, 7 months): no adverse effects | gray hair versus untreated group ([3]; aged female mice): reduced | lifespan, females, treated versus untreated ([3]; aged female mice): indistinguishable | hair density versus untreated control ([3]; aged female mice, 7 months): higher | effect on gray hair and hair density ([3]; aged male mice): minimal | lifespan, male group ([3]; aged male mice): extended | males alive and healthy at end of the 7 months study period ([3]; aged male mice): 4 of 5 | cataracts ([3]; aged mice): no cataracts | liver appearance ([3]; male and female aged mice): greatly improved liver appearance | ratio of infarct size to AAR (male mice): 31.2±3.6
